What all share (assay type): in vivo
In assay [1] the test system is “Momotaro” tomato. Briefly: Example 6 salt stress test (tomato), hydroponic culture. The settings on record: 23° C., 100 ppm, 2 weeks; for Fresh weight, relative value (untreated plot = 100), Test 5 / Fresh weight, relative value (untreated plot = 100), Test 8 / Fresh weight, relative value (untreated plot = 100), Test 6 / Fresh weight, relative value (untreated plot = 100), Test 7: hydroponic culture; for Fresh weight, relative value (untreated plot = 100), Test 5: EC 2.7 mS/cm; for Fresh weight, relative value (untreated plot = 100), Test 5 / Fresh weight, relative value (untreated plot = 100), Test 6 / Fresh weight, relative value (untreated plot = 100), Test 7 / Fresh weight, relative value (untreated plot = 100), Comparison 2: two-leaf stage; for Fresh weight, relative value (untreated plot = 100), Test 8 / Fresh weight, relative value (untreated plot = 100), Test 6: EC 3.9 mS/cm; for Fresh weight, relative value (untreated plot = 100), Test 8: five-leaf stage; for Fresh weight, relative value (untreated plot = 100), Test 7: EC 4.8 mS/cm; for Fresh weight, relative value (untreated plot = 100), Comparison 2: stress-free: hydroponic culture, EC 1.3 mS/cm. As to the method: (§1) (a) Comparative example conditions (stress-free optimum growth conditions) Cultivation temperature: 23° C., EC: 1.3 mS/cm (Otsuka ½A formulation) (b) Example conditions (salt stress conditions) Cultivation temperature: 23° C., EC: 2.7, 3.9, 4.8 mS/cm (cultivation with Kureha gardening soil) (2) Illuminance: 5000 Lux (fluorescent light), light/dark cycle: 16 hours/8 hours (3) Employed soil: Kureha gardening soil manufactured by Kureha Corporation (fertilizer components: N:P:K=0.4:1.9:0.6 g/kg soil) (4) Employed solution culture medium: Otsuka ½A formulation: a mixed solution of Otsuka House No. 1 (N:P:K=10:8:27) 7.5 g/10 L and Otsuka House No. 2 (N:P:K:Ca=10:0:0:23) 5 g/10 L, total nitrogen: 130 ppm, phosphoric acid: 60 ppm, potassium: 203 ppm) (5) Cultivation period: 2 weeks (6) Plant preparation: A 50-cell tray was filled with Kureha gardening soil manufactured by Kureha Corporation (fertilizer components: N:P:K=0.4:1.9:0.6 g/kg soil), and seeds of a “Momotaro” tomato or tubers of a “Danshaku” potato were sowed, thinly covered with Kureha gardening soil, and sufficiently watered to allow the seeds or the tubers to sprout. When the leaves in the 2-leaf stage or the 5-leaf stage fully unfolded, the soil on the tomato roots or the potato roots was carefully washed away with running water, and a test was performed. (7) Test chemicals: POE (20) sorbitan monolauric acid ester: Reodol TW-L120 (Kao Corporation) POE (20) sorbitan monopalmitic acid ester: Reodol TW-P120 (Kao Corporation) POE (20) sorbitan monostearic acid ester: Reodol TW-S120 (Kao Corporation) POE (20) sorbitan monooleic acid ester: Reodol TW-O120 (Kao Corporation) Sorbitan monooleic acid ester: Emasol 0-10(F) (Kao Corporation) POE (6) sorbitan monooleic acid ester: Reodol TW-O106 (Kao Corporation) Alkyl (number of carbon atoms: 10) polyglucoside: AG-10LK (Kao Corporation) Alkyl (number of carbon atoms: 12 to 14) polyglucoside: AG-124 (Kao Corporation) Sucrose fatty acid ester (number of carbon atoms: C18, HLB: 5): S-570 (Mitsubishi-Kagaku Foods Corporation) Sucrose fatty acid ester (number of carbon atoms: C18, HLB: 9): S-970 (Mitsubishi-Kagaku Foods Corporation) Sucrose fatty acid ester (number of carbon atoms: C18, HLB: 11): S-1170 (Mitsubishi-Kagaku Foods Corporation) Sucrose fatty acid ester (number of carbon atoms: C18, HLB: 15): 5-1570 (Mitsubishi-Kagaku Foods Corporation) Sucrose fatty acid ester (number of carbon atoms: C16, HLB: 15): P-1570 (Mitsubishi-Kagaku Foods Corporation) Sucrose fatty acid ester (number of carbon atoms: C18:1, HLB: 15): O-1570 (Mitsubishi-Kagaku Foods Corporation) (8) Amount of treatment solution applied: 10 ml/specimen for leaf spraying, 250 ml/specimen for hydroponic culture (treatment of underground portion) (9) 50 ml/specimen for soil culture (treatment of underground portion)
The environmental conditions in a climatic chamber were controlled so as to have a temperature of 23° C., an illuminance by a fluorescent light of 5000 Lux, and a daily light-dark cycle of a 16-hour light period and an 8-hour dark period. Tomatoes as prepared above were planted in 250 ml polyethylene bottles each filled with a solution culture medium having a different EC value. Different EC values were achieved by taking a ½ Otsuka A formulation having an EC value of 1.3 as a standard and suitably increasing the fertilizer concentration through proportional counting. A treatment solution containing a compound of Table 1 in a specific concentration (the remainder was water) was prepared and sprayed onto the leaves or applied to the underground portion. In each test plot, 10 specimens were prepared for replication, and the average of the fresh weight of each specimen 2 weeks after the beginning of the test was calculated and expressed as a relative value where “100” indicates a result identical to that of the untreated plot of a given EC condition. […]

The test system of the next assay is potato. Briefly: Example 9 drying stress test (potato), soil culture. Particulars: 23° C., 100 ppm, 2 weeks; for Fresh weight, relative value (untreated plot = 100), Test 1 / Fresh weight, relative value (untreated plot = 100), Test 4 / Fresh weight, relative value (untreated plot = 100), Test 2 / Fresh weight, relative value (untreated plot = 100), Test 3: potato soil culture; for Fresh weight, relative value (untreated plot = 100), Test 1: EC 1, pF 2.8, two-leaf stage; for Fresh weight, relative value (untreated plot = 100), Test 4: EC 1, pF 3.5, five-leaf stage; for Fresh weight, relative value (untreated plot = 100), Test 2: EC 1, pF 3.5, two-leaf stage; for Fresh weight, relative value (untreated plot = 100), Test 3: EC 1, pF 4.1, two-leaf stage; for Fresh weight, relative value (untreated plot = 100), Comparison 1: stress-free: potato soil culture, EC 1, pF 1.7, two-leaf stage. As to the method:
The environmental conditions in a climatic chamber were controlled so as to have a temperature of 23° C., an illuminance by a fluorescent light of 5000 Lux, and a daily light-dark cycle of a 16-hour light period and an 8-hour dark period. Potatoes as prepared above were transplanted in size-5 (15 cm) pots. During the test period, the pF value was controlled by adding a suitable amount of tap water once a day so as to attain a specific drying stress value. A treatment solution containing a compound of Table 5 in a specific concentration (the remainder was water) was prepared and sprayed onto the leaves or applied to the underground portions. […] A comparative example was constructed to reflect the drying stress-free optimum cultivation conditions to investigate the plant energizing ability. […] Moreover, when the products of the present invention and the comparative products were compared, the stress tolerance imparting ability of the products of the present invention was higher in respective drying stress conditions.

Assay [2] concerns “Momotaro” tomato. Put plainly: Example 6 salt stress test (tomato), soil culture. The settings on record: 23° C., 100 ppm, 2 weeks; for Fresh weight, relative value (untreated plot = 100), Test 1 / Fresh weight, relative value (untreated plot = 100), Test 4 / Fresh weight, relative value (untreated plot = 100), Test 2 / Fresh weight, relative value (untreated plot = 100), Test 3: soil culture; for Fresh weight, relative value (untreated plot = 100), Test 1: EC 1.3 mS/cm; for Fresh weight, relative value (untreated plot = 100), Test 4 / Fresh weight, relative value (untreated plot = 100), Test 2: EC 2 mS/cm; for Fresh weight, relative value (untreated plot = 100), Test 4: pF 1.7, five-leaf stage; for Fresh weight, relative value (untreated plot = 100), Test 3: EC 3 mS/cm. As to the method: (1) A. soil culture (a) Comparative example conditions (stress-free optimum growth conditions) Cultivation temperature: 23° C., EC: 1.0 mS/cm (cultivation with Kureha gardening soil), pF value: 1.7 (capillaries in a saturated state) (b) Example conditions (salt stress conditions) Cultivation temperature: 23° C., EC: 1.3, 2.0, 3.0 mS/cm (cultivation with Kureha gardening soil), pF value: 1.7 (capillaries in a saturated state)
as §1
The environmental conditions in a climatic chamber were controlled so as to have a temperature of 23° C., an illuminance by a fluorescent light of 5000 Lux, and a daily light-dark cycle of a 16-hour light period and an 8-hour dark period. Tomatoes as prepared above were transplanted in size-3 (9 cm) pots. During the test period, the EC value was controlled by adding a suitable amount of a 10% NaCl solution once a day so as to attain a specific salt stress value. A treatment solution containing a compound of Table 1 in a specific concentration (the remainder was water) was prepared and sprayed onto the leaves or applied to the underground portions. […]

Setting [3] is: pF 1.7, two-leaf stage, underground portion.

The text below walks through data of US20110100079A1, “METHOD FOR IMPARTING STRESS TOLERANCE TO PLANT” (priority 2007, published 2011).

Turning to `OC[C@H]1O[C@H](OC[C@H]2O[C@H](O[C@]3(CO)O[C@H](CO)[C@@H](O)[C@@H]3O)[C@H](O)[C@@H](O)[C@@H]2O)[C@H](O)[C@@H](O)[C@H]1O` [Comparative product 4, Raffinose, reference compound], in the assay on “Momotaro” tomato [1] (leaf), the “Fresh weight, relative value (untreated plot = 100), Test 5” value (“Fresh weight, relative value … Test 5” for short) worked out at 103; the “Fresh weight, relative value (untreated plot = 100), Test 8” value (from here on “Fresh weight, relative value … Test 8”) is recorded as 102; the “Fresh weight, relative value (untreated plot = 100), Test 6” value (from here on “Fresh weight, relative value … Test 6”) came out at 103; the “Fresh weight, relative value (untreated plot = 100), Test 7” value (from here on “Fresh weight, relative value … Test 7”) turned out to be 103. Also, the “Fresh weight, relative value (untreated plot = 100), Comparison 2” value (from here on “Fresh weight, relative value … Comparison 2”) with “Momotaro” tomato [1] (leaf) was found to be 102. In addition, in the assay with potato (leaf), the “Fresh weight, relative value (untreated plot = 100), Test 1” value (“Fresh weight, relative value … Test 1” below) is on record as 103; the “Fresh weight, relative value (untreated plot = 100), Test 4” value (“Fresh weight, relative value … Test 4” below) is reported as 101; the “Fresh weight, relative value (untreated plot = 100), Test 2” value (“Fresh weight, relative value … Test 2” below) was 103; the “Fresh weight, relative value (untreated plot = 100), Test 3” value (“Fresh weight, relative value … Test 3” below) is listed as 103. Also, the “Fresh weight, relative value (untreated plot = 100), Comparison 1” value (“Fresh weight, relative value … Comparison 1” below) in the assay on potato (leaf) was found to be 102.
“Sucrose fatty acid ester (C18, HLB = 15) [Product of present invention 20]”: in the assay with “Momotaro” tomato [2] (pF 1.7, two-leaf stage, leaf), the “Fresh weight, relative value … Test 1” value stood at 120; the “Fresh weight, relative value … Test 2” value worked out at 134; the “Fresh weight, relative value … Test 3” value is 119. Moreover, in the assay with “Momotaro” tomato [2] (leaf), the “Fresh weight, relative value … Test 4” value was 129. Also, in the assay on “Momotaro” tomato [1] (leaf), the “Fresh weight, relative value … Test 5” value came out at 121; the “Fresh weight, relative value … Test 8” value worked out at 133; the “Fresh weight, relative value … Test 6” value stood at 138; the “Fresh weight, relative value … Test 7” value was 125. For the same molecule, the “Fresh weight, relative value … Comparison 2” value in the assay with “Momotaro” tomato [1] (leaf) came out at 103. Moreover, in the assay on potato (leaf), the “Fresh weight, relative value … Test 1” value was determined as 118; the “Fresh weight, relative value … Test 4” value stood at 128; the “Fresh weight, relative value … Test 2” value was 135; the “Fresh weight, relative value … Test 3” value stood at 118. The “Fresh weight, relative value … Comparison 1” value in the assay on potato (leaf) is 102.
With “POE (20) sorbitan monooleic acid ester [Product of present invention 1]”, in the assay with “Momotaro” tomato [2] (setting [3]), the “Fresh weight, relative value … Test 1” value amounted to 142; the “Fresh weight, relative value … Test 2” value amounted to 185; the “Fresh weight, relative value … Test 3” value came to 140. Also, in the assay on “Momotaro” tomato [2] (underground portion), the “Fresh weight, relative value … Test 4” value amounted to 156. In the assay with “Momotaro” tomato [2] (stress-free: soil culture, EC 1 mS/cm, pF 1.7, two-leaf stage, underground portion), the “Fresh weight, relative value … Comparison 1” value was 103. Further, in the assay with “Momotaro” tomato [1] (underground portion), the “Fresh weight, relative value … Test 5” value stood at 145; the “Fresh weight, relative value … Test 8” value came out at 160; the “Fresh weight, relative value … Test 6” value amounted to 190; the “Fresh weight, relative value … Test 7” value is 145. In addition, in the assay on “Momotaro” tomato [1] (underground portion), the “Fresh weight, relative value … Comparison 2” value amounted to 104. In the assay on potato (underground portion), the “Fresh weight, relative value … Test 1” value turned out to be 133; the “Fresh weight, relative value … Test 4” value is on record as 156; the “Fresh weight, relative value … Test 2” value was determined as 185; the “Fresh weight, relative value … Test 3” value turned out to be 140. Also, in the assay on potato (underground portion), the “Fresh weight, relative value … Comparison 1” value is listed as 102.
In the case of “Alkyl (C12-14) polyglycoside [Product of present invention 16]”, in the assay with potato (leaf), the “Fresh weight, relative value … Test 1” value is given as 120; the “Fresh weight, relative value … Test 4” value turned out to be 132; the “Fresh weight, relative value … Test 2” value was determined as 140; the “Fresh weight, relative value … Test 3” value worked out at 120. In the assay with potato (leaf), the “Fresh weight, relative value … Comparison 1” value amounted to 101.
